From ChEMBL document CHEMBL1155003, “Halicyclamine A, a marine spongean alkaloid as a lead for anti-tuberculosis agent” (2008)
In brackets after ≈: the same amount, converted by molar mass. Activity calls are given as the source filed them. No cut-off for these calls is given here.

How the values were obtained:
[1] = test system: Mycolicibacterium smegmatis; experiment: Antitubercular activity against Mycobacterium smegmatis MC2 155 under aerobic condition after 24 hrs by MTT method; type: functional; settings: str. MC2 155, 24 h
[2] = test system: Mycobacterium tuberculosis; experiment: Antitubercular activity against Mycobacterium tuberculosis H37Ra under aerobic condition after 7 days by MTT method; type: functional; settings: 168 h
[3] = test system: Mycolicibacterium smegmatis; experiment: Antitubercular activity against Mycobacterium smegmatis MC2 155 under hypoxic condition after 96 hrs by MTT method; type: functional; settings: str. MC2 155, 96 h
[4] = test system: Mycobacterium tuberculosis; experiment: Antitubercular activity against Mycobacterium tuberculosis H37Ra under hypoxic condition after 14 days by MTT method; type: functional; settings: 336 h
[5] = test system: Mycolicibacterium smegmatis; experiment: Antitubercular activity against guaB2 gene over-expressed Mycobacterium smegmatis MC2 155 ICHO1003; type: functional; settings: str. MC2 155
[6] = test system: Mycobacterium tuberculosis; experiment: Antitubercular activity against Mycobacterium tuberculosis H37Rv ATCC 25618 after 14 days; type: functional; settings: 336 h
[7] = test system: Mycolicibacterium smegmatis; experiment: Antitubercular activity against guaB1 gene over-expressed Mycobacterium smegmatis MC2 155 ICHO1002; type: functional; settings: str. MC2 155
[8] = test system: Mycolicibacterium smegmatis; experiment: Bactericidal activity against Mycobacterium smegmatis MC2 155 assessed as decrease in CFU at 10 ug/ml after 4 days; type: functional, organism-based; settings: str. MC2 155
[9] = test system: Mycolicibacterium smegmatis; experiment: Antitubercular activity against guaB3 gene over-expressed Mycobacterium smegmatis MC2 155 ICHO1004; type: functional; settings: str. MC2 155
Mycolicibacterium aurum = experiment: Antitubercular activity against Mycobacterium aurum ATCC 23366 after 14 days; type: functional; settings: ATCC 23366, 336 h
[10] = test system: Mycolicibacterium smegmatis; experiment: Antitubercular activity against Mycobacterium smegmatis MC2 155 ICHO1001 with pMV261 transformant; type: functional; settings: str. MC2 155
[11] = test system: Mycolicibacterium fortuitum; experiment: Antitubercular activity against Mycobacterium fortuitum ATCC 9820 after 14 days; type: functional; settings: ATCC 9820, 336 h
[12] = test system: Mycobacterium tuberculosis; experiment: Antitubercular activity against Mycobacterium tuberculosis Kurono ATCC 35812 after 14 days; type: functional; settings: 336 h
Mycobacterium avium = experiment: Antitubercular activity against Mycobacterium avium ATCC 35712 after 14 days; type: functional; settings: ATCC 35712, 336 h
[13] = test system: Mycobacterium intracellulare; experiment: Antitubercular activity against Mycobacterium intracellular ATCC 35761 after 14 days; type: functional; settings: ATCC 35761, 336 h
[14] = test system: Mycobacterium tuberculosis; experiment: Bactericidal activity against Mycobacterium tuberculosis H37Rv assessed as decrease in CFU at 20 ug/ml after 11 to 28 days; type: functional
Mycobacterium kansasii = experiment: Antitubercular activity against Mycobacterium kansasii ATCC 35775 after 14 days; type: functional; settings: ATCC 35775, 336 h

`NNC(=O)c1ccncc1` [ISONIAZID] was tested, and the MIC [1] was 2.5 µg/mL (≈ 18.2 µM), the MIC [2] was 0.05 µg/mL (≈ 0.365 µM) and the MIC [3] was 25 µg/mL (≈ 182 µM). The MIC [4] was > 100 µg/mL.

Compound `C1=C2CCCC/C=C\C=C\CCN3CC[C@@H]4[C@H](CCCCCC/C=C\C=C/CCN(C2)C[C@H]14)C3` [HALICYCLAMINE A] has an MIC [5] of 2.5 µg/mL (≈ 5.4 µM), an MIC [6] of 6.25 µg/mL (≈ 13.5 µM) and an MIC [7] of 2.5 µg/mL (≈ 5.4 µM). For the same compound, the Activity [8] was “Active”, the MIC [1] was 2.5 µg/mL (≈ 5.4 µM) and the MIC [2] was 5 µg/mL (≈ 10.8 µM). It also gave an MIC [9] of 2.5 µg/mL (≈ 5.4 µM), an MIC (Mycolicibacterium aurum) of 6.25 µg/mL (≈ 13.5 µM) and an MIC [3] of 2.5 µg/mL (≈ 5.4 µM). For the same compound, the MIC [10] was 2.5 µg/mL (≈ 5.4 µM), the MIC [11] was 25 µg/mL (≈ 54 µM) and the MIC [4] was 5 µg/mL (≈ 10.8 µM). For the same compound, the MIC [12] was 3.13 µg/mL (≈ 6.76 µM), the MIC (Mycobacterium avium) was 6.25 µg/mL (≈ 13.5 µM) and the MIC [13] was 6.25 µg/mL (≈ 13.5 µM). The CFU/ml [14] was <10 and the MIC (Mycobacterium kansasii) was 3.13 µg/mL (≈ 6.76 µM).
